In brackets after ≈: the same amount, converted by molar mass. Several values for one entry are separate records, joined by “and”; a condition that tells them apart may be missing. Equal entries are not always repeated.
What was measured:
in vitro = details: African green monkey
HBV = type: cell-based
[1] = tested on: LLC-MK2, Rhesus monkey kidney cells; details: Punta Toro A line
HCMV = assay: Antiviral activity, HCMV (HFF); type: cell-based; details: Human betaherpesvirus 5
HIV = type: cell-based
HSV-2 = assay: Antiviral activity, HSV-2 (HFF); type: cell-based; details: Human alphaherpesvirus 2
RSV type A = assay: Antiviral activity, RSV type A (MA-104); type: cell-based; details: human respiratory syncytial virus, MA104
HepG2 cells [2] = assay: Incorporation of drug into cellular RNA and DNA; details: 10 μM [3H] drug, 30 hours
[3] = tested on: MDCK, canine kidney cells; assay: Cytotoxicity, MDCK; type: cell-based
HepG2 cells [4] = assay: Transmission electron microscopy of mitochondrial ultrastructure
Rhinovirus type 2 = assay: microbe, parasite or virus in culture; type: cell-based; details: Enterovirus

For `CC1(O)C(O)C(CO)OC1n1ccc(N)nc1=O` (stereo not shown) [mCyd, 4-Amino-1-(3,4-dihydroxy-5-hydroxymethyl-3-methyl-tetrahydro-furan-2-yl)-1H-pyrimidine-2-one], the CC50 (in vitro) was greater than 100 µM, the “activity against HBV” value (HBV) was “no activity” and the CC50 [1] was greater than 200 µM. For the same molecule, the EC50 (HCMV) was 9.9 to 15.6 µg/mL (≈ 38.5 to 60.6 µM), the “activity against HIV” value (HIV) was “no activity” and the EC50 (HSV-2) was greater than 100 µg/mL. The EC50 (RSV type A) was greater than 200 µM, the “Incorporated drug amount, DNA” value (HepG2 cells [2]) was 0.0013 pmole/μg DNA and 0.0013 ± 0.0008^a pmole/μg DNA and the “Incorporated drug amount, RNA” value (HepG2 cells [2]) was 0.0014 pmole/μg RNA and 0.0014 ± 0.0008^a pmole/μg RNA. It also gave a CC50 ([3]; Influenza A/H1N1 line) greater than 200 µM, a CC50 ([3]; Influenza A/H3N2 line) of 45 to 65 µM and a CC50 ([3]; Influenza B line) of 55 to 140 µM. For the same molecule, the “Electron Microscopy, Lipid Droplet Form.” value (HepG2 cells [4]; 10 μM, 14 days) was “Negative”, the “Electron Microscopy, Mito. Morphol.” value (HepG2 cells [4]; 10 μM, 14 days) was “Normal^d” and the “cells in which 1 to 2 mitochondria out of an average of 25 appeared enlarged” value (HepG2 cells [4]; 14 days of exposure to 10 μM) was 17%. It also gave an EC50 (Rhinovirus type 2) of 2 to 10 µM.
